The text below walks through data of patent US20250120967A1, “TYROSINE KINASES INHIBITORS AND USES THEREOF” (GREAT NOVEL THERAPEUTICS BIOTECH & MEDICALS CORPORATION, priority 2023, published 2025).

One test has as its system CT-26 cells. In words: In vitro cytotoxicity assay (MTT, 72 h). As to conditions: Mus musculus, CT26, growth inhibition. It is filed as cell-based, murine. On the procedure: (§1) Six different cell lines were used, including human breast cancer cell lines MDA-MB-231 (6×10^3) and MDA-MB-453 (2.4×10^4), human colorectal cell line SW48 (2.4×10^4), human breast epithelial cell line M10 (6×10^3), human cancer cell line A549 (1.4×10^3), and murine colorectal carcinoma tumors CT26 (6×10^3), which were seeded in a 96-well plate. […] After 72 h, MTT assay (Cayman™) was used to determine the cellular viability.

The target of another test is RET (Homo sapiens, UniProt P07949). In words: Tyrosine kinase inhibition assay. The class given is biochemical. Particulars: read-out: IC50 of compound. The protocol: (§2) Tyrosine kinase inhibition assays were performed at ThermoFisher Life Technologies (Madison, WI, USA) using standard protocols (SelectScreen Biochemical Profiling Service, Thermo Fisher Scientific). ATP concentrations used were at the apparent Km. Test compounds were screened in 1% dimethylsulffoxide (DMSO) (final concentration) in the well. For 10-point titrations, 3-fold serial dilutions were conducted from the starting concentration of […]. All Peptide/Kinase Mixtures were diluted to a 2× working concentration in the appropriate Kinase Buffer. All ATP Solutions were diluted to a 4× working concentration in Kinase Buffer (50 mM HEPES pH 7.5, 0.01% BRIJ-35, 10 mM MgCl2, 1 mM EGTA). The apparent ATP Km was previously determined using a Z′-LYTE assay. The Development Reagent was diluted in Development Buffer.
(§3) The inhibition activities of compounds were determined in biochemical assays using single concentration (1.0 μM) measurements. The results were provided as percent inhibition values.

A further test concerns the target FRK (PTK5) (Homo sapiens, UniProt P42685). In words: Tyrosine kinase inhibition assay. The class given is biochemical. Particulars: read-out: IC50 of compound. On the procedure:
as §2, §3

A further test concerns MDA-MB-231 cells. Briefly: In vitro cytotoxicity assay (MTT, 72 h). As to conditions: Homo sapiens, growth inhibition. The class given is cell-based. The protocol: as §1
In the next test the test system is SW48 cells. Briefly: In vitro cytotoxicity assay (MTT, 72 h). The class given is cell-based. As to conditions: Homo sapiens, growth inhibition. The protocol: as §1
For a further test, the system named is M10 cells. Briefly: In vitro cytotoxicity assay (MTT, 72 h). Particulars: growth inhibition, human normal cell line. It is filed as cell-based. The protocol: as §1
The test system of another test is MDA-MB-453 cells. Briefly: In vitro cytotoxicity assay (MTT, 72 h). The class given is cell-based. As to conditions: Homo sapiens, growth inhibition. On the procedure: as §1
The next test has as its system A549 cells. In words: In vitro cytotoxicity assay (MTT, 72 h). The class given is cell-based. As to conditions: Homo sapiens, growth inhibition. The protocol:
as §1

Another test has as its target FER (Homo sapiens, UniProt P16591). Briefly: Tyrosine kinase inhibition assay. It is filed as biochemical. Particulars: read-out: IC50 of compound. On the procedure:
as §2
(§4) The inhibition activities of compounds were determined in biochemical assays using single concentration (1.0 μM) measurements. The results were provided as percent inhibition values. A compound displaying a percent inhibition value of greater 80% was defined as a hit. 99 different tyrosine kinases were used.

Another test addresses PDGFRA (PDGFR alpha) (Homo sapiens, UniProt P16234). Briefly: Tyrosine kinase inhibition assay. As to conditions: read-out: IC50 of compound. The class given is biochemical. The protocol:
as §2, §4

For the next test, the target named is BTK (Homo sapiens, UniProt Q06187). Briefly: Tyrosine kinase inhibition assay. It is filed as biochemical. As to conditions: read-out: IC50 of compound. The protocol:
as §2, §4

The target in another test is FLT4 (VEGFR3) (Homo sapiens, UniProt P35916). Briefly: Tyrosine kinase inhibition assay. It is filed as biochemical. Particulars: read-out: IC50 of compound. On the procedure: as §2, §4
In a further test the target is LYN B (Homo sapiens, UniProt P07948). In words: Tyrosine kinase inhibition assay. It is filed as biochemical. As to conditions: LYN B; read-out: IC50 of compound. The protocol:
as §2, §4

The target in a further test is HCK (Homo sapiens, UniProt P08631). In words: Tyrosine kinase inhibition assay. The class given is biochemical. As to conditions: read-out: IC50 of compound. The protocol:
as §2, §4

The target of the next test is ROS1 (Homo sapiens, UniProt P08922). In words: Tyrosine kinase inhibition assay. The class given is biochemical. As to conditions: read-out: IC50 of compound. On the procedure:
as §2, §4

A further test concerns the target SRC (Homo sapiens, UniProt P12931). In words: Tyrosine kinase inhibition assay. The class given is biochemical. Particulars: read-out: IC50 of compound. The protocol: as §2, §4
The target of the next test is LYN A (Homo sapiens, UniProt P07948). In words: Tyrosine kinase inhibition assay. The class given is biochemical. As to conditions: read-out: IC50 of compound. On the procedure: as §2, §4
A further test addresses EPHA2 (Homo sapiens, UniProt P29317). Briefly: Tyrosine kinase inhibition assay. It is filed as biochemical. Particulars: read-out: IC50 of compound. On the procedure: as §2, §4
In a further test the target is LCK (Homo sapiens, UniProt P06239). In words: Tyrosine kinase inhibition assay. It is filed as biochemical. As to conditions: read-out: IC50 of compound. On the procedure: as §2, §4
The target in a further test is NTRK2 (TRKB) (Homo sapiens, UniProt Q16620). In words: Tyrosine kinase inhibition assay. It is filed as biochemical. Particulars: NTRK2 (TRKB); read-out: IC50 of compound. On the procedure: as §2, §4
Sequence of NTRK2 (TRKB) (Q16620 32-822): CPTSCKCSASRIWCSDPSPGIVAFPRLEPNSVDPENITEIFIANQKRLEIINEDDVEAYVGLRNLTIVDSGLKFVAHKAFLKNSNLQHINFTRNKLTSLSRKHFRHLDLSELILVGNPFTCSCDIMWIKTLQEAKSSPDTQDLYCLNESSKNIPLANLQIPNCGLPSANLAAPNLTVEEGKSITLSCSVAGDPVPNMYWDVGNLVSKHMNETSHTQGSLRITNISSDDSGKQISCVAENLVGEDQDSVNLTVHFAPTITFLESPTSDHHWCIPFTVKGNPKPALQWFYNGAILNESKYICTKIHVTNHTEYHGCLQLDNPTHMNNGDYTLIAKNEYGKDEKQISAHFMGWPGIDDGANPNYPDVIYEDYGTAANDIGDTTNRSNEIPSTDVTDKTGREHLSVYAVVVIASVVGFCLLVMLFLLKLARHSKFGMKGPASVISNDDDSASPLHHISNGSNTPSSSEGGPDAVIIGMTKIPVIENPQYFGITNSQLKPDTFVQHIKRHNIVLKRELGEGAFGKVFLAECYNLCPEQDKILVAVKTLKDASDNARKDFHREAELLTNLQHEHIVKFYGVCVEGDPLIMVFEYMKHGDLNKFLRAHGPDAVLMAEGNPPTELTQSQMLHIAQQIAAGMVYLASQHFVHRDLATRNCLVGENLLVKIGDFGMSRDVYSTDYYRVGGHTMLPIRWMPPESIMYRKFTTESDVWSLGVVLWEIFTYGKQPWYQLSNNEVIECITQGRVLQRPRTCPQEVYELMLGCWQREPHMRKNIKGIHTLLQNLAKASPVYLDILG
For another test, the target named is FGR (Homo sapiens, UniProt P09769). Briefly: Tyrosine kinase inhibition assay. It is filed as biochemical. Particulars: read-out: IC50 of compound. On the procedure: as §2, §4
A further test concerns the target INSRR (IRR) (Homo sapiens, UniProt P14616). Briefly: Tyrosine kinase inhibition assay. The class given is biochemical. As to conditions: read-out: IC50 of compound. On the procedure: as §2, §4

Sequence of ROS1 (P08922 28-2347): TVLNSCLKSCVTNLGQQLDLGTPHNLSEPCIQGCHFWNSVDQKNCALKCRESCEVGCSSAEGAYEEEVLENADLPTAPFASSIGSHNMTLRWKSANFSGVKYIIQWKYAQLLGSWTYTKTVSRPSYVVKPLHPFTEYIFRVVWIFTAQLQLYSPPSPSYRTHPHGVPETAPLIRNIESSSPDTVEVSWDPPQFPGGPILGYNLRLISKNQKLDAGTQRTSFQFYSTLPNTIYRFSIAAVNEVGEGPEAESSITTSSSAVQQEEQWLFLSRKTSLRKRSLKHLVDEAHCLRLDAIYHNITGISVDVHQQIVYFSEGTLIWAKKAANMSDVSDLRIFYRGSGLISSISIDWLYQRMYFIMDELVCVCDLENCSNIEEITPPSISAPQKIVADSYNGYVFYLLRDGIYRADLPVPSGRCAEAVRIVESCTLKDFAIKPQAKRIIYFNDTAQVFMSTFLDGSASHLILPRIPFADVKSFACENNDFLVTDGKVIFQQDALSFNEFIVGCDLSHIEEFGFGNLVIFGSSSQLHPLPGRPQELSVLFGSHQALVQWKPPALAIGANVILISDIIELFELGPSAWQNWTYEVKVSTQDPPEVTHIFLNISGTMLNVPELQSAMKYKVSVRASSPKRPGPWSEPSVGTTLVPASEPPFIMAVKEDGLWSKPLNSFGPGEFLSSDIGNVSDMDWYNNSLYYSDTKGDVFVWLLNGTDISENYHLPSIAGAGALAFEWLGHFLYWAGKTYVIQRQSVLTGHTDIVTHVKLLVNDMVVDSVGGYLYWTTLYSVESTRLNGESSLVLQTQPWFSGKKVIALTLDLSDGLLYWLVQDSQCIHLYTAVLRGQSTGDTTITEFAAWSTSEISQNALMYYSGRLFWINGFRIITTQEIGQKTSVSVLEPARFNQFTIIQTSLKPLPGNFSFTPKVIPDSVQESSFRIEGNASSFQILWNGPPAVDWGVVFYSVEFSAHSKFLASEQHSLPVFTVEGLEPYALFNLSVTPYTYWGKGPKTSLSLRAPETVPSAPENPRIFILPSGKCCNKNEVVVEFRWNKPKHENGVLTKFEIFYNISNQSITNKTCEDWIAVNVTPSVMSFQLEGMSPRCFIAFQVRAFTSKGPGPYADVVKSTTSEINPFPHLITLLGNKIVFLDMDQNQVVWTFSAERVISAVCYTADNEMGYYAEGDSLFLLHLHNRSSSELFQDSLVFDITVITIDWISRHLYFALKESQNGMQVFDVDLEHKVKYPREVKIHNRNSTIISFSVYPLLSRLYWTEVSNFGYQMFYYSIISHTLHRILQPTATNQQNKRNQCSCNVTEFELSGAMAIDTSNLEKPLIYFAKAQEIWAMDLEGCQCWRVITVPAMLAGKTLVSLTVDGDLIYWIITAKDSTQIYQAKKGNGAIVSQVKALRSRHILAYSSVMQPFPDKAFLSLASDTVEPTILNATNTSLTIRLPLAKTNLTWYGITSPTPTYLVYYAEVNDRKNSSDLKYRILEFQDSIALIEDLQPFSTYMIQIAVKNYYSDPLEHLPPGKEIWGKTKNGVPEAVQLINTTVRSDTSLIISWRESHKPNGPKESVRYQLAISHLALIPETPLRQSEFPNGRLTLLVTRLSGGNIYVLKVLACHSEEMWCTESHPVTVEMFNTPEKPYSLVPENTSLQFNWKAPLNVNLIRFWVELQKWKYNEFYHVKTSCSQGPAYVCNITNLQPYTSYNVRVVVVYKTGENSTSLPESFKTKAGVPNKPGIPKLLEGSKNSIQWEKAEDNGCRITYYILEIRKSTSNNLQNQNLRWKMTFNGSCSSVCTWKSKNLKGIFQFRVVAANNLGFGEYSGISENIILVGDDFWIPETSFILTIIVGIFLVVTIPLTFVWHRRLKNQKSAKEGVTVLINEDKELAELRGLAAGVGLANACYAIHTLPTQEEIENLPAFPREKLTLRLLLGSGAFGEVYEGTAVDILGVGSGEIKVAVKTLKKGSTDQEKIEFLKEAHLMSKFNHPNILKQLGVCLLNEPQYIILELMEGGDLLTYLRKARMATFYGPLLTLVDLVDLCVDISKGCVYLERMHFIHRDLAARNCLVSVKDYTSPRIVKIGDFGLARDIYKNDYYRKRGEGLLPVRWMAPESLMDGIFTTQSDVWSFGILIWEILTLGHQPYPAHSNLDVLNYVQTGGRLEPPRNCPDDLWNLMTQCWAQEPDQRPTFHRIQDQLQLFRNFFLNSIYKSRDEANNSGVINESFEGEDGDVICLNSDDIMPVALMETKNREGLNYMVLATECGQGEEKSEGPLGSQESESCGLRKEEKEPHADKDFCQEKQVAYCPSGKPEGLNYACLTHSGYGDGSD
Sequence of BTK (Q06187 whole entry): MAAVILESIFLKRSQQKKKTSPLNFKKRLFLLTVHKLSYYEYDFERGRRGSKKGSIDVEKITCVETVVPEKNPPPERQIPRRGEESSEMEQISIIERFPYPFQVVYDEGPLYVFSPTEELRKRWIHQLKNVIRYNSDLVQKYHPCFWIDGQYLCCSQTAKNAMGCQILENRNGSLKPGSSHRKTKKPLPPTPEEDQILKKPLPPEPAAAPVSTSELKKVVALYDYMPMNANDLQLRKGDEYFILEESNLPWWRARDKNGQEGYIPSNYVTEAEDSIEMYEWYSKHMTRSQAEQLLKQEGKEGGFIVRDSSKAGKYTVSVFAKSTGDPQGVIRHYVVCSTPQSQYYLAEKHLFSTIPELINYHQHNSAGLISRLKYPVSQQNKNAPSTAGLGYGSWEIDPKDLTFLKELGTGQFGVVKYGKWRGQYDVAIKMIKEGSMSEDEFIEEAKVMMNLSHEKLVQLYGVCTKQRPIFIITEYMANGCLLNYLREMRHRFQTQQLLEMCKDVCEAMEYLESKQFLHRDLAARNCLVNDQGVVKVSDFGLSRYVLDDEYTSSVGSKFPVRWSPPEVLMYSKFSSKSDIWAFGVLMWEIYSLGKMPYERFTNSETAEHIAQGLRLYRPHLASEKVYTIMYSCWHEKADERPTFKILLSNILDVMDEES
Sequence of INSRR (IRR) (P14616 27-1297): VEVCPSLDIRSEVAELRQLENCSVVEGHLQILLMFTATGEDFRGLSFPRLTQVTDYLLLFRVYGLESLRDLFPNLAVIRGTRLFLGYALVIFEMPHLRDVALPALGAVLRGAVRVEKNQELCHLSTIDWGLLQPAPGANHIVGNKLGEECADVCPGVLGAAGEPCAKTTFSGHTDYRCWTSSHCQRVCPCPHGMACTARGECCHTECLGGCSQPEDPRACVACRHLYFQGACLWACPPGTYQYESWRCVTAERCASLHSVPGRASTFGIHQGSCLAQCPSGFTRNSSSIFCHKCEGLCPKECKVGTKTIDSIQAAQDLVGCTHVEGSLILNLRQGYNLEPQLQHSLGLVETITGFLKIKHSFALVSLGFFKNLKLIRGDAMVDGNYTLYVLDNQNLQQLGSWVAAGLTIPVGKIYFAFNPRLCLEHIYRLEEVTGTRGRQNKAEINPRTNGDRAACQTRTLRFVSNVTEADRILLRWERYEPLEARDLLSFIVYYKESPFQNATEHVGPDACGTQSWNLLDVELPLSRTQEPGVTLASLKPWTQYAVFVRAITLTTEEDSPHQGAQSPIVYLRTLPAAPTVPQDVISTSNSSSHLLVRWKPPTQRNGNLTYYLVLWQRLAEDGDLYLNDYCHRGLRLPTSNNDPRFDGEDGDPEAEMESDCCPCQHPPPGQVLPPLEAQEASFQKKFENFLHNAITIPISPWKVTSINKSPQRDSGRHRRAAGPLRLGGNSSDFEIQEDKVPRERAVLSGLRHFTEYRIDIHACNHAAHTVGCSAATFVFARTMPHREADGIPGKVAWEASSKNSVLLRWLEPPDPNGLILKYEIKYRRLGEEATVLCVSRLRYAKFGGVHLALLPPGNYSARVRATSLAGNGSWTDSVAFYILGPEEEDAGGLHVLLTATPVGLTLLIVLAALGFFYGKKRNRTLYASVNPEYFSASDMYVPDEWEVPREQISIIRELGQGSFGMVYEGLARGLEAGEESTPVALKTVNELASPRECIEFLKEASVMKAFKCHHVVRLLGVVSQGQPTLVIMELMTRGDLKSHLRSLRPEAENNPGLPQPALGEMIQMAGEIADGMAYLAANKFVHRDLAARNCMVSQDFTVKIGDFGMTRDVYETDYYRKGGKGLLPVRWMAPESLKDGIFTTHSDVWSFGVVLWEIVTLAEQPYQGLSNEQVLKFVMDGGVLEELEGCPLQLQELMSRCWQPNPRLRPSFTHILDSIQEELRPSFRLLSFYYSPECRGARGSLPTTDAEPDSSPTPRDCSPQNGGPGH

In general, IC50 refers to the point on the concentration scale where inhibition reaches its midpoint. In the case of `CNC(=O)c1cc2c(Oc3ccc(NC(=O)C4(C(=O)Nc5ccc(F)cc5)CC4)cc3)ccnc2cc1OC` [Zanzalintinib, reference compound], the IC50 amounted to 22000 ± 290 nM with CT-26 cells; 22.5 nM at RET; 10.3 nM on FRK (PTK5); 6170 ± 150 nM in the test on MDA-MB-231 cells; 6860 ± 260 nM in the test with SW48 cells; 3280 ± 1840 nM with M10 cells. Moreover, the IC50 was found to be 22600 ± 1050 nM in the test on MDA-MB-453 cells; 7580 ± 180 nM in the test on A549 cells; 266 nM at FER; 93.9 nM on PDGFRA (PDGFR alpha); 111 nM at BTK; 21.7 nM at FLT4 (VEGFR3). The IC50 at LYN B was 30.7 nM; at HCK, 59 nM; on ROS1, 71.4 nM; on SRC it was 45.1 nM; on LYN A, 70.9 nM; at EPHA2 it was 52.2 nM. The IC50 on LCK was determined as 7.07 nM; at NTRK2 (TRKB) it was 112 nM; at FGR, 35.4 nM; on INSRR (IRR), 302 nM.
